Patent publication US20060111331A1, “Gave10 agonists for treating inflammation” (Aventis Pharmaceuticals Inc., priority 2004, published 2006)

Key:
Assay type in all cases: cell-based
GAVE10 [1] = biological target: T1, GAVE10 (Homo sapiens, UniProt Q8TDU6); test: FLIPR assay, PSC cells transfected with GAVE10 (calcium signaling); conditions: PSC cells alone vs PSC cells transfected with GAVE10; FIG. 1
T1 construct: expressed in transfected cells; host or cells: PSC cells
T1 sequence (Q8TDU6 1-330): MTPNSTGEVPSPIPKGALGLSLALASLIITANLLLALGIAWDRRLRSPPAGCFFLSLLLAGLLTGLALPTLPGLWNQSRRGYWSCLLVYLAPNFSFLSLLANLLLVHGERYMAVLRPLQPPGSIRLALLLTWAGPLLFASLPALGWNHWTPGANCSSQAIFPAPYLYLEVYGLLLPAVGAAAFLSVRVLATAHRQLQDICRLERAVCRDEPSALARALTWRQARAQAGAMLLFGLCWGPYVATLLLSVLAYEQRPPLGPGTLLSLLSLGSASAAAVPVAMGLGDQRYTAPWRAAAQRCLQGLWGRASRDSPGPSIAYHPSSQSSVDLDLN
Procedure: Compounds A, B, and C and lithocholic acid (LCA) were incubated, respectively, with PSC cells alone and PSC cells transfected with GAVE10, and the cells were then assayed in a FLIPR® assay.
To screen for agonists of human GAVE10, hGAVE10 was coupled artificially to a Gq mechanism. Activation of the Gq mechanism stimulates the release of Ca^2+ from sarcoplasmic reticulum vesicles within the cell. The Ca^2+ was released into the cytoplasm where it can be detected using Ca^2+ chelating dyes. A Fluorometric Imaging Plate Reader (i.e., a FLIPR® apparatus, Molecular Devices) was used to monitor any resulting changes in fluorescence. The activity of an agonist was reflected by any increase in fluorescence.
CHO-KI cells expressing hGAVE10 were pre-engineered to express an indiscriminate form of Gq protein (G016). To prepare such cells, Gα16-coupled CHO cells were obtained commercially (Molecular Devices LIVEWARE™ cells, Catalog No. RD-HGAI6) and the protocol in Example 2 followed to facilitate expression of hGAVE10 in those cells. The cells were maintained in log phase of growth at 37° C. and 5% CO2 in F12 Ham's media (Gibco/BRL, Catalog No. 11765-054) containing 10% fetal bovine serum, 100 IU/ml penicillin (Gibco/BRL, Catalog No. 15140-148), 100 μg/ml streptomycin (Catalog No. 15140-148, Gibco/BRL), 400 μg/ml genetecin (G418) (Gibco/BRL, Catalog No. 10131-035) and 200 μg/ml zeocin (Invitrogen, Catalog No. R250-05). […]
The CCD camera (Princeton Instruments) of the FLIPR® II (Molecular Devices) instrument was set at an f-stop of 2.0 and an exposure of 0.4 seconds. […] Changes in fluorescence were measured for 10 seconds prior to compound addition. After the addition of the compound, fluorescence was measured every second for the first minute followed by exposures taken every six seconds for a total experimental analysis time of three minutes. […] The maximum fluorescence changes for the first 80 scans were recorded as a measure of agonist activity and compared to the maximum fluorescence change induced by 10 μM ATP (Sigma A9062).

[2] = tested on: TNFα release in mouse macrophages; test: TNFα release assay in mouse macrophages; conditions: FIG. 3
GAVE10 [3] = biological target: T1, GAVE10; test: cAMP assay, PSC cells transfected with GAVE10; conditions: PSC cells alone vs PSC cells transfected with GAVE10; FIG. 2
Procedure: Compounds A, B, and C and LCA were incubated, respectively, with PSC cells alone and PSC cells transfected with GAVE 10, and the cells were then assayed in a cAMP assay.

[4] = tested on: IL-6 production in mouse macrophages; test: IL-6 production in mouse macrophages; conditions: male and female, effect more pronounced in male, FIG. 4

Compound | activation of calcium-signaling pathways via GAVE10 (FLIPR) (GAVE10 [1]) | inhibition of TNFα release [2] | increase of intracellular cAMP via GAVE10 activation (GAVE10 [3]) | inhibition of IL-6 production [4]
CC(CCC(=O)NCC[N+](C)(C)C)C1CCC2C3CCC4CC(O)CCC4(C)C3CC(O)C12C (stereo not drawn) [Compound A] | bind to GAVE10 to activate calcium-signaling pathways | inhibited TNFα release | activate GAVE10 to increase intracellular cAMP | 
CC(CCC(=O)N1CCN(C)CC1)C1CCC2C3CCC4CC(O)CCC4(C)C3CC(O)C12C (stereo not drawn) [Compound B] | bind to GAVE10 to activate calcium-signaling pathways | inhibited TNFα release | activate GAVE10 to increase intracellular cAMP | 
CC(CCC(=O)NCCN1CCOCC1)C1CCC2C3CCC4CC(O)CCC4(C)C3CC(O)C12C (stereo not drawn) [Compound C] | bind to GAVE10 to activate calcium-signaling pathways |  | activate GAVE10 to increase intracellular cAMP | 
C[C@H](CCC(=O)O)[C@H]1CC[C@H]2[C@@H]3CC[C@@H]4C[C@H](O)CC[C@]4(C)[C@H]3C[C@H](O)[C@]12C [DCA] |  |  |  | inhibit IL-6 production
